Results reported in PubChem BioAssay AID248 (DTP/NCI, 2004).
Values joined by “and” are separate entries in the source; they are usually repeats but may differ in a detail not shown here. Equal values may be shown once. Toxic doses and inconclusive results are not listed.

Test system: L1210 leukemia ip in BDF1 mice, survival T/C
Test: NCI In Vivo Anticancer Drug Screen. Data for tumor model L1210 Leukemia (intraperitoneal) in B6D2F1 (BDF1) mice
Conditions: higher = longer survival
Summary of the method: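 In this screen, tumor-bearing mice given compound are compared to those given vehicle, and their survival values are reported as a treated-to-control quotient.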

## C1CN1c1nc(N2CC2)nc(N2CC2)n1
endpoint: mean survival time, dose: 1.0 mg/kg/injection, schedule: Q01DX009 (oral), vehicle: saline
  T/C: 124 % of control
endpoint: mean survival time, dose: 1.0 mg/kg/injection, schedule: Q01DX010 (oral), vehicle: carboxymethylcellulose (CMC)
  T/C: 119 % of control
endpoint: mean survival time, dose: 1.0 mg/kg/injection, schedule: Q01DX Z (ip), vehicle: saline
  T/C: 96 % of control and 110 % of control
endpoint: mean survival time, dose: 1.0 mg/kg/injection, schedule: Q04DX003 (ip), vehicle: Klucel (hydroxypropylcellulose) (HPC)
  T/C: 152 % of control and 173 % of control
endpoint: mean survival time, dose: 1.0 mg/kg/injection, schedule: Q## X003 (ip), vehicle: saline
  T/C: 177 % of control
endpoint: mean survival time, dose: 1.0 mg/kg/injection, schedule: Q## X008 (ip), vehicle: saline
  T/C: 108 % of control
endpoint: mean survival time, dose: 1.0 mg/kg/injection, schedule: Q#A X Z (ip), vehicle: saline
  T/C: 93 % of control
endpoint: mean survival time, dose: 1.3 mg/kg/injection, schedule: Q## X003 (ip), vehicle: saline
  T/C: 164 % of control
endpoint: mean survival time, dose: 1.3 mg/kg/injection, schedule: Q## X004 (ip), vehicle: saline
  T/C: 185 % of control
endpoint: mean survival time, dose: 1.5 mg/kg/injection, schedule: Q01DX005 (ip), vehicle: saline
  T/C: 118 % of control
endpoint: mean survival time, dose: 1.5 mg/kg/injection, schedule: Q04DX003 (ip), vehicle: saline
  T/C: 169 % of control
endpoint: mean survival time, dose: 1.75 mg/kg/injection, schedule: Q07DX Z (ip), vehicle: saline
  T/C: 193 % of control
endpoint: mean survival time, dose: 2.0 mg/kg/injection, schedule: Q01DX001 (oral), vehicle: saline
  T/C: 106 % of control
endpoint: mean survival time, dose: 2.0 mg/kg/injection, schedule: Q01DX001 (sc), vehicle: saline
  T/C: 159 % of control
endpoint: mean survival time, dose: 2.0 mg/kg/injection, schedule: Q01DX010 (oral), vehicle: carboxymethylcellulose (CMC)
  T/C: 97 % of control
endpoint: mean survival time, dose: 2.0 mg/kg/injection, schedule: Q## X002 (ip), vehicle: saline
  T/C: 197 % of control
endpoint: mean survival time, dose: 2.0 mg/kg/injection, schedule: Q## X003 (ip), vehicle: saline
  T/C: 172 % of control and 186 % of control
endpoint: mean survival time, dose: 2.0 mg/kg/injection, schedule: Q## X004 (ip), vehicle: saline
  T/C: 191 % of control
endpoint: mean survival time, dose: 2.0 mg/kg/injection, schedule: Q## X006 (ip), vehicle: saline
  T/C: 193 % of control
endpoint: mean survival time, dose: 2.0 mg/kg/injection, schedule: Q## X016 (ip), vehicle: saline
  T/C: 168 % of control
endpoint: mean survival time, dose: 2.0 mg/kg/injection, schedule: Q## X024 (ip), vehicle: saline
  T/C: 188 % of control
endpoint: mean survival time, dose: 2.1 mg/kg/injection, schedule: Q01DX001 (ip), vehicle: saline
  T/C: 187 % of control
endpoint: mean survival time, dose: 3.0 mg/kg/injection, schedule: Q01DX001 (ip), vehicle: saline
  T/C: 107 % of control
endpoint: mean survival time, dose: 3.0 mg/kg/injection, schedule: Q## X003 (ip), vehicle: saline
  T/C: 150 % of control
endpoint: mean survival time, dose: 3.0 mg/kg/injection, schedule: Q## X004 (ip), vehicle: saline
  T/C: 108 % of control
endpoint: mean survival time, dose: 3.13 mg/kg/injection, schedule: Q01DX001 (ip), vehicle: saline
  T/C: 164 % of control
endpoint: mean survival time, dose: 3.2 mg/kg/injection, schedule: Q01DX001 (ip), vehicle: saline
  T/C: 213 % of control
endpoint: mean survival time, dose: 4.0 mg/kg/injection, schedule: Q01DX001 (oral), vehicle: saline
  T/C: 122 % of control
endpoint: mean survival time, dose: 4.0 mg/kg/injection, schedule: Q01DX009 (oral), vehicle: saline
  T/C: 113 % of control
endpoint: mean survival time, dose: 4.0 mg/kg/injection, schedule: Q01DX Z (oral), vehicle: saline
  T/C: 93 % of control
endpoint: mean survival time, dose: 4.0 mg/kg/injection, schedule: Q## X002 (ip), vehicle: saline
  T/C: 118 % of control
endpoint: mean survival time, dose: 4.0 mg/kg/injection, schedule: Q## X006 (ip), vehicle: saline
  T/C: 95 % of control
endpoint: mean survival time, dose: 4.5 mg/kg/injection, schedule: Q01DX001 (ip), vehicle: saline
  T/C: 94 % of control
endpoint: mean survival time, dose: 4.5 mg/kg/injection, schedule: Q## X003 (ip), vehicle: saline
  T/C: 98 % of control
endpoint: mean survival time, dose: 4.5 mg/kg/injection, schedule: Q## X004 (ip), vehicle: saline
  T/C: 106 % of control
endpoint: mean survival time, dose: 8.0 mg/kg/injection, schedule: Q01DX001 (ip), vehicle: saline
  T/C: 110 % of control
endpoint: mean survival time, dose: 16.0 mg/kg/injection, schedule: Q01DX001 (ip), vehicle: saline
  T/C: 107 % of control
endpoint: mean survival time, dose: 49.0 micrograms/kg/injection, schedule: Q01DX Z (ip), vehicle: carboxymethylcellulose (CMC)
  T/C: 95 % of control
endpoint: mean survival time, dose: 98.0 micrograms/kg/injection, schedule: Q01DX Z (ip), vehicle: carboxymethylcellulose (CMC)
  T/C: 97 % of control
endpoint: mean survival time, dose: 195.0 micrograms/kg/injection, schedule: Q01DX Z (ip), vehicle: carboxymethylcellulose (CMC)
  T/C: 95 % of control
endpoint: mean survival time, dose: 390.0 micrograms/kg/injection, schedule: Q01DX Z (ip), vehicle: carboxymethylcellulose (CMC)
  T/C: 100 % of control
endpoint: median survival time, dose: 0.25 mg/kg/injection, schedule: Q01DX001 (ip), vehicle: saline
  T/C: 104 % of control
endpoint: median survival time, dose: 0.5 mg/kg/injection, schedule: Q01DX001 (ip), vehicle: saline
  T/C: 115 % of control
